In patent US8785470B2, “Heterocyclic compounds and uses thereof” (Infinity Pharmaceuticals, Inc., priority 2011, dated 2014):
Like-named read-outs stand apart in the source and are kept apart here.

Experiments:
PI3Kβ = molecular target: T1, PI3Kβ (Homo sapiens, UniProt P42338); assay: PI3-Kinase HTRF assay, PI3Kβ; format: biochemical; settings: bins Greater than 10 μM and Greater than 1 μM to 10 μM; 10 μM ATP, PIP2 at 10 μM
T1 construct: purchased Millipore Corporation 14-603-K
Source text: (§1) A PI3-Kinase HTRF® assay kit (cat No. 33-016) purchased from Millipore Corporation was used to screen compounds provided herein. This assay used specific, high affinity binding of the GRPI pleckstrin homology (PH) domain to PIP3, the product of a Class 1A or 1B PI3 Kinase acting on its physiological substrate PIP2. During the detection phase of the assay, a complex was generated between the GST-tagged PH domain and biotinylated short chain PIP3. The biotinylated PIP3 and the GST-tagged PH domain recruited fluorophores (Streptavidin-Allophycocyanin and Europium-labeled anti-GST respectively) to form the fluorescence resonance energy transfer (FRET) architecture, generating a stable time-resolved FRET signal. The FRET complex was disrupted in a competitive manner by non-biotinylated PIP3, a product formed in the PI3 Kinase assay.
(§2) PI3 Kinase α, β, γ and δ activity was assayed using the PI3 Kinase HTRF® assay kit (catalogue No. 33-016) purchased from Millipore Corporation. Purified recombinant PI3Kα (catalogue No. 14-602-K), PI3Kβ (catalogue No. 14-603-K), PI3Kγ (catalogue No. 14-558-K) and PI3Kδ (catalogue No. 14-604-K) were obtained from Millipore Corporation. Purified recombinant PI3K enzyme was used to catalyze the phosphorylation of phosphatidylinositol 4,5-bisphosphate (PIP2 at 10 μM) to phosphatidylinositol 3,4,5-trisphosphate (PIP3) in the presence of 10 μM ATP. The assay was carried out in 384-well format and detected using a Perkin Elmer EnVision Xcite Multilabel Reader. Emission ratios were converted into percent inhibitions and imported into GraphPad Prism software. The concentration necessary to achieve inhibition of enzyme activity by 50% (IC50) was calculated using concentrations ranging from 20 μM to 0.1 nM (12-point curve). IC50 values were determined using a nonlinear regression model available in GraphPad Prism 5. […]

Balb/c splenic B cells = assay: B cell activation and proliferation assay; format: cell-based; settings: Mus musculus, read-out: B cell proliferation EC50
Protocol: The ability of one or more subject compounds to inhibit B cell activation and proliferation is determined according to standard procedures known in the art. For example, an in vitro cellular proliferation assay is established that measures the metabolic activity of live cells. The assay is performed in a 96 well microtiter plate using Alamar Blue reduction. Balb/c splenic B cells are purified over a Ficoll-Paque™ PLUS gradient followed by magnetic cell separation using a MACS B cell Isolation Kit (Miletenyi). Cells are plated in 90 μl at 50.000 cells/well in B Cell Media (RPMI+10% FBS+Penn/Strep+50 μME5 mM HEPES). A compound provided herein is diluted in B Cell Media and added in a 10 μl volume. Plates are incubated for 30 min at 37° C. and 5% CO2 (0.2% DMSO final concentration). A 50 μl B cell stimulation cocktail is then added containing either 10 μg/ml LPS or 5 μg/ml F(ab′)2 Donkey anti-mouse IgM plus 2 ng/ml recombinant mouse IL4 in B Cell Media. Plates are incubated for 72 hours at 37° C. and 5% CO2. A volume of 15 μL of Alamar Blue reagent is added to each well and plates are incubated for 5 hours at 37° C. and 5% CO2. Alamar Blue fluoresce is read at 560Ex/590Em, and IC50 or EC50 values are calculated using GraphPad Prism 5.

PI3Kα = molecular target: T2, PI3Kα (Homo sapiens, UniProt P42336); assay: PI3-Kinase HTRF assay, PI3Kα; format: biochemical; settings: bins Greater than 10 μM and Greater than 1 μM to 10 μM; 10 μM ATP, PIP2 at 10 μM; read-out: IC50 P13Kα
T2 construct: purchased Millipore Corporation 14-602-K
Source text: as §1, §2

[1] = column bins 1 μM to 100 nM (given as 100-1000) and Less than 100 nM

T2 sequence (P42336 whole entry): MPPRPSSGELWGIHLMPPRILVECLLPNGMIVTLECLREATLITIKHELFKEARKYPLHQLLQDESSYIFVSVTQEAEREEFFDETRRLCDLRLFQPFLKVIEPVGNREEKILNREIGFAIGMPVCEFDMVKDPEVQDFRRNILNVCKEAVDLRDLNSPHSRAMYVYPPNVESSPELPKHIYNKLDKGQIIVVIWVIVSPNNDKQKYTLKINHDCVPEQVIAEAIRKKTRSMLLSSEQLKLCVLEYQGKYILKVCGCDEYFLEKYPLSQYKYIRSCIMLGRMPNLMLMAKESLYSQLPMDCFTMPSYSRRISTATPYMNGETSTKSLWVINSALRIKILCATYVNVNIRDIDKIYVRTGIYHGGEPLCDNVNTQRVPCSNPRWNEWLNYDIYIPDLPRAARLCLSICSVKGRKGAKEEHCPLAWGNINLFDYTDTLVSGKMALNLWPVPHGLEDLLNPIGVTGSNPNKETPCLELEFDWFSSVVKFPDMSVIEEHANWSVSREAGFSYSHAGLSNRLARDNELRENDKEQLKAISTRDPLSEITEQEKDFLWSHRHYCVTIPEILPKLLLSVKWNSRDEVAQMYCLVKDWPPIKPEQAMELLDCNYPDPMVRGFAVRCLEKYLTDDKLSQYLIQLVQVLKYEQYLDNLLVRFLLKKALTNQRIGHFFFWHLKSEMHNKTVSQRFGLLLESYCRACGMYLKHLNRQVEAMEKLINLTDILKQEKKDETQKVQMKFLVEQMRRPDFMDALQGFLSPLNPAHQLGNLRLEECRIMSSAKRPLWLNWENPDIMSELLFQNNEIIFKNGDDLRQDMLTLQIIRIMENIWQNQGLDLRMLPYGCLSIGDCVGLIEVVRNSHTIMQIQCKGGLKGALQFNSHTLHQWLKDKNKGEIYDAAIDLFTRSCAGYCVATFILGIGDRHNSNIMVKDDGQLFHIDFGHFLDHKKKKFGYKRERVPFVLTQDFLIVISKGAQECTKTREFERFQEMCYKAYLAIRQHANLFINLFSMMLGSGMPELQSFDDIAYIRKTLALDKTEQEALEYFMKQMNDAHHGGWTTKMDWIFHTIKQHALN
T2 sequence (P27986 whole entry partner): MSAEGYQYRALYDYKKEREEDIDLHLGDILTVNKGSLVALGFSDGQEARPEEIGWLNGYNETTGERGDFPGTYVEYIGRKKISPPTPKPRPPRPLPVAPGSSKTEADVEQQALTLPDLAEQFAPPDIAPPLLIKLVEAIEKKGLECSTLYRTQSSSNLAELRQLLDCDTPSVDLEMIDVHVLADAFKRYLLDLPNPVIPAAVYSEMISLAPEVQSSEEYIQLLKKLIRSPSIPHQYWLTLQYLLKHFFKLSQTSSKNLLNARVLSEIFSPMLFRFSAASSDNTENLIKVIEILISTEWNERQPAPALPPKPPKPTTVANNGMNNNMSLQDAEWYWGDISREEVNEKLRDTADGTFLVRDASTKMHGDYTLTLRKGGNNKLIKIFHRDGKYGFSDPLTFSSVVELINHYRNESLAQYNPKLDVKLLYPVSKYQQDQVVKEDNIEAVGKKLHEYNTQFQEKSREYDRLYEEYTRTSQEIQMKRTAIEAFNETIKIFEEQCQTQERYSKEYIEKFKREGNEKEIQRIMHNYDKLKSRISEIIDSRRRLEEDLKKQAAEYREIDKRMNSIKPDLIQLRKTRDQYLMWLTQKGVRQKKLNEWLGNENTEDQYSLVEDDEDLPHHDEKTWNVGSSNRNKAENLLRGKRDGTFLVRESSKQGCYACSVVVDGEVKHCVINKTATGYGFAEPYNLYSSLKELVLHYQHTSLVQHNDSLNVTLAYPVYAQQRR
T1 sequence (P42338 whole entry): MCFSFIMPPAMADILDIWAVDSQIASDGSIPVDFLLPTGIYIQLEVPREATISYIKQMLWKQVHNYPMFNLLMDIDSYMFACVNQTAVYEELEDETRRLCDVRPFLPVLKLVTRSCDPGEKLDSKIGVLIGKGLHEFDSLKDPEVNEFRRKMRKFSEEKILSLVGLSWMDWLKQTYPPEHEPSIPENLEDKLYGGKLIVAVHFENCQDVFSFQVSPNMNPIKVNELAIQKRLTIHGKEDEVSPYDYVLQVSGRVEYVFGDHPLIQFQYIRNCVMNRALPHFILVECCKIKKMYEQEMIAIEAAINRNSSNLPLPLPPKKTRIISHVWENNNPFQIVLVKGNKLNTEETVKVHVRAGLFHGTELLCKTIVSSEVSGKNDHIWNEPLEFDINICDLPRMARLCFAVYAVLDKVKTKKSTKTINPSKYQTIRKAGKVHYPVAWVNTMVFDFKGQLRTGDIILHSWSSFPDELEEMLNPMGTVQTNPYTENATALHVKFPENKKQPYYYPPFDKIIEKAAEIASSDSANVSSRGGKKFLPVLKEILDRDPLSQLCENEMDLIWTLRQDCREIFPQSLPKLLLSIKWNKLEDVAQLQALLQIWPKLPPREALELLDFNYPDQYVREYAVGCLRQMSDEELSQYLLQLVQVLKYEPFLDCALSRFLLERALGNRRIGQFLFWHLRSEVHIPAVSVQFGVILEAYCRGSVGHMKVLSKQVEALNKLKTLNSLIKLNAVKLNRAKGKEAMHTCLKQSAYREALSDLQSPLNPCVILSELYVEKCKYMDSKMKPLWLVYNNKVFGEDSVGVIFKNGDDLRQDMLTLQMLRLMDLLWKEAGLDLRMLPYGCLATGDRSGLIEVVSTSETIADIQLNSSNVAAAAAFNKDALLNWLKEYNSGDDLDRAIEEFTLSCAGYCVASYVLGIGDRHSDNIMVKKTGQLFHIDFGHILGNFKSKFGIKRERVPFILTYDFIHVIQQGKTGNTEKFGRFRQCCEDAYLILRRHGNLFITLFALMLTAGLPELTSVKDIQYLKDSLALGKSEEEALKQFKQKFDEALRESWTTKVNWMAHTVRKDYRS
T1 sequence (P27986 whole entry partner): as the sequence (P27986 whole entry partner) above

Compound | IC50 (PI3Kβ) | IC50 (PI3Kα) | EC50 (Balb/c splenic B cells; [1]) | EC50 (Balb/c splenic B cells)
C[C@H](Nc1nc(N)ncc1C#N)c1cc2cccc(-c3cccc(C#N)c3)c2c(=O)n1-c1ccccc1 [Compound 44] | 1000 to 10000 nM | 1000 to 10000 nM | < 100 nM | 
C[C@H](Nc1nc(N)ncc1C#N)c1cc2cccc(-c3cncc(O)c3)c2c(=O)n1-c1ccccc1 [Compound 13, 2-amino-4-((S)-1-(8-(5-hydroxypyridin-3-yl)-1-oxo-2-phenyl-1,2-dihydroisoquinolin-3-yl)ethylamino)pyrimidine-5-carbonitrile] | 1000 to 10000 nM | 1000 to 10000 nM | < 100 nM | 
COc1cc(-c2cccc3nc([C@H](C)Nc4nc(N)ncc4C#N)n(-c4ccccc4)c(=O)c23)ccn1 [Compound 116] | 1000 to 10000 nM | 1000 to 10000 nM |  | < 100 nM
COc1ncc(-c2cccc3cc([C@H](C)Nc4nc(N)ncc4C#N)n(-c4ccccc4)c(=O)c23)s1 [Compound 70] | 1000 to 10000 nM | 1000 to 10000 nM |  | 
C[C@H](Nc1nc(N)ncc1C#N)c1nc2cccc(-c3cnn(C)c3)c2c(=O)n1-c1ccccc1 [Compound 61] | 1000 to 10000 nM | 1000 to 10000 nM | < 100 nM | 
Cc1cc(-c2cccc3nc([C@H](C)Nc4nc(N)ncc4C#N)n(-c4ccccc4)c(=O)c23)ccn1 [Compound 62] | 1000 to 10000 nM | 1000 to 10000 nM | < 100 nM | 
C[C@H](Nc1nc(N)ncc1C#N)c1cc2cccc(-c3ccc4c(c3)OCO4)c2c(=O)n1-c1ccccc1 [Compound 94] | 1000 to 10000 nM | 1000 to 10000 nM | < 100 nM | 
C[C@H](Nc1nc(N)ncc1C#N)c1cc2cccc(-c3cnoc3)c2c(=O)n1-c1ccccc1 [Compound 74] | 1000 to 10000 nM | 1000 to 10000 nM | < 100 nM | 
C[C@H](Nc1nc(N)ncc1C#N)c1cc2cccc(-c3ccc(Cl)cc3)c2c(=O)n1-c1ccccc1 [Compound 32] | 1000 to 10000 nM | 1000 to 10000 nM |  | 
C[C@H](Nc1nc(N)ncc1C#N)c1cc2cccc(-c3ccc(C#N)cc3)c2c(=O)n1-c1ccccc1 [Compound 43] | 1000 to 10000 nM | 1000 to 10000 nM | < 100 nM | 
C[C@H](Nc1nc(N)ncc1C#N)c1cc2cccc(-c3ccc(S(N)(=O)=O)cc3)c2c(=O)n1-c1ccccc1 [Compound 45] | 1000 to 10000 nM | 1000 to 10000 nM | < 100 nM | 
Cc1ncc(-c2cccc3cc([C@H](C)Nc4nc(N)ncc4C#N)n(-c4ccccc4)c(=O)c23)s1 [Compound 68] | 1000 to 10000 nM | 1000 to 10000 nM |  | 
C[C@H](Nc1nc(N)ncc1C#N)c1nc2cccc(-c3ccnnc3)c2c(=O)n1-c1ccccc1 [Compound 66, (S)-2-amino-4-((1-(4-oxo-3-phenyl-5-(pyridazin-4-yl)-3,4-dihydroquinazolin-2-yl)ethyl)amino)pyrimidine-5-carbonitrile] | 1000 to 10000 nM | 1000 to 10000 nM | < 100 nM | 
Cc1cccc2cc([C@H](C)Nc3nc(N)ncc3C(F)(F)F)n(-c3cccc(F)c3)c(=O)c12 [Compound 16] | 1000 to 10000 nM |  | < 100 nM | 
COc1ccc(-c2cccc3cc([C@H](C)Nc4nc(N)ncc4C#N)n(-c4ccccc4)c(=O)c23)cc1 [Compound 38] | 1000 to 10000 nM | 1000 to 10000 nM |  | 
COc1cc(-c2cccc3cc([C@H](C)Nc4nc(N)ncc4C#N)n(-c4ccccc4)c(=O)c23)cnc1C [Compound 100] | 1000 to 10000 nM |  | < 100 nM | 
C[C@H](Nc1nc(N)ncc1C#N)c1cc2cccc(-c3ccc(N(C)C)cc3)c2c(=O)n1-c1ccccc1 [Compound 42] | 1000 to 10000 nM | 1000 to 10000 nM | < 100 nM | 
COc1ccc(-c2cccc3cc([C@H](C)Nc4nc(N)ncc4C#N)n(-c4ccccc4)c(=O)c23)cn1 [Compound 35] | 1000 to 10000 nM | 1000 to 10000 nM |  | 
C[C@H](Nc1nc(N)ncc1C#N)c1cc2cccc(-c3cncc(C(F)(F)F)c3)c2c(=O)n1-c1ccccc1 [Compound 52] | 1000 to 10000 nM | 1000 to 10000 nM | < 100 nM | 
COc1cc(-c2cccc3cc([C@H](C)Nc4nc(N)ncc4C#N)n(-c4cccc(F)c4)c(=O)c23)ccn1 [Compound 28] | 1000 to 10000 nM |  | < 100 nM | 
COc1cncc(-c2cccc3cc([C@H](C)Nc4nc(N)ncc4C#N)n(-c4cccc(F)c4)c(=O)c23)c1 [Compound 27] | 1000 to 10000 nM |  | < 100 nM | 
C[C@H](Nc1nc(N)ncc1C#N)c1cc2cccc(-c3ccnnc3)c2c(=O)n1-c1cccc(F)c1 [Compound 30] | 1000 to 10000 nM |  | < 100 nM | 

Now from value to compound, other results behind:

IC50 (PI3Kβ) | IC50 (PI3Kα) | Compound | EC50 (Balb/c splenic B cells; [1]) | EC50 (Balb/c splenic B cells)
1000 to 10000 nM | 1000 to 10000 nM | C[C@H](Nc1nc(N)ncc1C#N)c1cc2cccc(-c3ccc(=O)n(CC4CC4)c3)c2c(=O)n1-c1ccccc1 [Compound 232] | < 100 nM | 
1000 to 10000 nM | 1000 to 10000 nM | C[C@H](Nc1nc(N)ncc1C#N)c1cc2cccc(-c3c[nH]nn3)c2c(=O)n1-c1ccccc1 [Compound 196] | < 100 nM | 
1000 to 10000 nM | 1000 to 10000 nM | C[C@H](Nc1nc(N)ncc1C#N)c1cc2cccc(-c3cccc(NS(C)(=O)=O)c3)c2c(=O)n1-c1ccccc1 [Compound 126] | < 100 nM | 
1000 to 10000 nM | 1000 to 10000 nM | CCn1cc(-c2cccc3cc([C@H](C)Nc4nc(N)ncc4C#N)n(-c4ccccc4)c(=O)c23)ccc1=O [Compound 230] | < 100 nM | 
1000 to 10000 nM | 1000 to 10000 nM | C[C@H](Nc1nc(N)ncc1C#N)c1cc2cccc(-c3ccnc(N)c3)c2c(=O)n1-c1ccccc1 [Compound 187] | < 100 nM | 
1000 to 10000 nM | 1000 to 10000 nM | C[C@H](Nc1nc(N)ncc1C#N)c1cc2cccc(-c3ccnc(NS(C)(=O)=O)c3)c2c(=O)n1-c1ccccc1 [Compound 443] | < 100 nM | 
1000 to 10000 nM |  | COc1cccc(-c2cccc3cc([C@H](C)Nc4nc(N)ncc4C#N)n(-c4ccccc4)c(=O)c23)n1 [Compound 166] | < 100 nM | 
1000 to 10000 nM | 1000 to 10000 nM | C[C@H](Nc1nc(N)ncc1C#N)c1cc2cccc(-c3ccc(=O)n(C)c3)c2c(=O)n1-c1ccccc1 [Compound 183] | < 100 nM | 
1000 to 10000 nM |  | COc1cc(-c2cccc3cc([C@H](C)Nc4nc(N)ncc4-c4cnc(OC)s4)n(-c4ccccc4)c(=O)c23)ccn1 [Compound 140] | < 100 nM | 
1000 to 10000 nM | 1000 to 10000 nM | C[C@H](Nc1nc(N)ncc1C#N)c1cc2cccc(C#CCCC(=O)N3CCCC3)c2c(=O)n1-c1ccccc1 [Compound 207] | < 100 nM | 
1000 to 10000 nM |  | Cc1ccc(-n2c([C@H](C)Nc3nc(N)ncc3C#N)cc3cccc(Cl)c3c2=O)cc1 [Compound 252] | 100 to 1000 nM | 
1000 to 10000 nM |  | C[C@H](Nc1nc(N)ncc1C#N)c1cc2cccc(Cl)c2c(=O)n1CC(C)(C)C [Compound 246] | 100 to 1000 nM | 
1000 to 10000 nM |  | C[C@H](Nc1nc(N)ncc1C#N)c1cc2cccc(-c3ccc(=O)n(C4CCCC4)c3)c2c(=O)n1-c1ccccc1 [Compound 233] | < 100 nM | 
1000 to 10000 nM |  | COc1cc(-c2cccc3cc([C@H](C)Nc4nc(N)ncc4-c4cnc(C)s4)n(-c4ccccc4)c(=O)c23)ccn1 [Compound 181] | < 100 nM | 
1000 to 10000 nM | 1000 to 10000 nM | CC(C)n1cc(-c2cccc3cc([C@H](C)Nc4nc(N)ncc4C#N)n(-c4ccccc4)c(=O)c23)ccc1=O [Compound 234] | < 100 nM | 
1000 to 10000 nM |  | C[C@H](Nc1nc(N)ncc1C#N)c1cc2cccc(CC#N)c2c(=O)n1-c1ccccc1 [Compound 124] | < 100 nM | 
1000 to 10000 nM |  | C[C@H](Nc1nc(N)ncc1-c1cccs1)c1cc2cccc(Cl)c2c(=O)n1-c1ccccc1 [Compound 367] | < 100 nM | 
